Consider two compounds from ChEMBL document CHEMBL1152045, “Synthesis of the pyrimidine analog of 4,5,6,7-tetrahydroimidazo[4,5,1-jk][1,4]benzodiazepin-2(1H)one (TIBO) potential for HIV-1 inhibition” (Bioorg Med Chem Lett, 1991).

The structures appear in SMILES notation. pIC50: −log10 of the molar value.

The subject of test [1] is MT4. Description: Compound was tested for its anti HIV-1 activity in MT-4 cells up to 2 uM concentration; No activity against HIV-l virus replication. The class given is functional, cell-based, Homo sapiens.
Test [2] deals with MT4. Description: Compound was tested for its anti HIV-1 activity in MT-4 cells. Conditions: Homo sapiens; call rule not given here. The class given is functional, cell-based.

With `CC(C)=CCN1Cc2ncnc3nc(O)n(c23)CC1C` (configuration not stated), the IC50 result in the test with MT4 [1] is recorded as “Not Active”. In the test on MT4 [2], `CC(C)=CCN1Cc2cc(Cl)cc3[nH]c(=S)n(c23)C[C@@H]1C` showed a pIC50 of 7.38.
